# Experimental data from patent publication US20100251415A1, “Composition and Method for Modulating Plant Transformation” (priority 2009, published 2010).
# Assays:
# N. tabacum [1] = assay: Calli regeneration under hygromycin selection after Agrobacterium-mediated transformation of leaves; assay type: in vivo, Nicotiana tabacum; conditions: for Calli regenerated and transplanted: total: 20 leaves transformed
# Procedure: Seeds of tobacco cultivar Big Havana were surface-sterilized with a solution containing 1% bleach and 0.05% Tween-80 for about 3 minutes and then rinsed twice with sterile distilled water for about 5 minutes. Surface-sterilized seeds were plated in 100 mm Petri dishes on sterile Whatman® filter paper submersed in 4 ml of liquid MS medium containing varying amounts of CeCl3, LaCl3 and a combination of CeCl3 and LaCl3 and the plants were transferred to a growth chamber for germination. Once germinated, the plants were removed from the growth chamber and grown for a period of one week under conditions of 16-hours light, 22° C. and 8-hours dark, 18° C. The three to five one week old plants were then removed from the 4-ml liquid medium and transferred to single sterile glass 250 ml flasks containing 15 ml of sterile liquid MS media supplemented with varying amounts of CeCl3, LaCl3 and a combination of CeCl3 and LaCl3. Flasks were then installed on shakers at 50-75 rpm. Plants were continuously grown under conditions of 16-hours light, 22° C. and 8-hours dark, 18° C. The growth medium in each flask was replaced weekly with 25 ml of fresh medium. Following a 3-week period, plants were removed from the flasks and 2 to 3 pairs of fully developed fresh leaves about 2-4 cm long were harvested (cut from the plant) for transformation with Agrobacteria.
# Experimental groups of tobacco plants were germinated and grown in a liquid medium culture supplemented with varying amounts of CeCl3, LaCl3 and a combination of CeCl3 and LaCl3. Control plants for the transformation experiments were grown in a standard MS-medium that was not supplemented with CeCl3 or LaCl3.
# Four weeks post-germination, the tobacco plants were removed from the liquid medium culture. The leaves from the plants were removed, and several parallel incisions were made along the leaves. The leaves were then vacuum infiltrated with an Agrobacterium suspension culture carrying the plasmid with LUC (gene coding for luciferase) and hygromycin (gene coding for the resistance to hygromycin) genes.
# The leaves were vacuum-infiltrated twice for about 5 minutes with the Agrobacterium suspension culture using standard procedures known in the art. Following vacuum infiltration, the tobacco leaves were dried for about 5 to 10 minutes on sterile Whatman® filter paper to remove substantially all excess Agrobacterium cells. The leaves were then placed on plates containing MS medium, and each of the plates were placed for in a room for a period of 3 day at a temperature of 22° C. and exposed to a daily regime of 16-hours of light and 8-hours of dark.
# Leaves from each of the experimental groups grown on the different media compositions having varying amounts of CeCl3, LaCl3 and a combination of CeCl3 and LaCl3 and the controls were washed with sterile water to remove the […]. To remove traces of growth medium, leaves were blotted on sterile filter paper and then submersed in a Petri dish laid out with Whatman® filter paper containing re-suspended Agrobacterium cells. Each submersed leaf surface was incised using a sharp surgical blade in parallel along the side veins. The distance between the two parallel incisions was about 5-7 mm. The primary leaf vein and leaf margins were left intact. Once cutting was complete, leaves remained submersed for a period of about 10 minutes. Leaves were then removed from the Petri dish and were blotted dry and placed upside-down on plates of MS medium, and were incubated in a dark room at 22° C. for a period of 3 days. Following incubation, leaves were removed from the plates and rinsed with sterile distilled water, blotted dry and transferred onto solid MS medium containing 0.8 mg/L of indole-3-acetic acid (IAA), and 2 mg/L kinetin for calli induction and regeneration, a combination of 100 mg/L ticarcillin and 3 mg/L potassium clavulanate to control Agrobacterium growth, and 25 mg/L hygromycin for selection for transformed cells. […]
# N. tabacum [2] = assay: Stable T-DNA integration: LUC expression test of regenerated plantlets; assay type: in vivo, Nicotiana tabacum; conditions: for Calli regenerated and transplanted, LUC expression test: LUC negative / Calli regenerated and transplanted, LUC expression test: LUC positive: 20 leaves transformed
# Procedure: The number of transgenic plants, having incorporated a marker gene, regenerated from tobacco calli in various transformation experiments were counted. All the regenerated plants were screened using a luciferase camera. Spraying the transgenic plants with luciferine, the substrate for luciferase enzyme, allowed the identification of transgenic plants expressing the luciferase.
# After a period of about 3 to 4 weeks, the number of regenerated calli were determined. Shoots that developed were excised from calli and transferred to a root inducing solid MS medium containing 0.5 mg/L of naphtaleneacetic acid (NAA), 100 mg/L ticarcillin, 3 mg/L potassium clavulanate and 25 mg/L hygromycin. After a 1 to 2 week period of root induction, the plantlets were transplanted to soil.
# The effects of CeCl3 on the occurrence of stable plant transformation events in N. tabacum plants were evaluated. These experiments identified transformed plants where the DNA of interest had stably integrated into the plant genome.
# The newly appeared plantlets regenerated from the calli of Example 3, showing evidence of root formation, were excised from the calli and transferred to soil.
# Plantlets were sprayed with luciferine, and the total number of luciferase-positive plantlets was scored. This allowed the calculation of the transformation frequency, as the number of plants expressing LUC gene to the number of transformed leaves, shown in FIG. 4.
# The number of stable transformants re-generated from plants grown on CeCl3 supplemented media and control medium, as detailed in Example 3, were compared.
# [3] = 0.1 μM CeCl3, liquid MS, Table 2 experiment
# [4] = 0.1 μM CeCl3, liquid MS, second independent experiment (Table 3)
# [5] = 0.5 μM CeCl3, liquid MS, Table 2 experiment
# [6] = 1.0 μM CeCl3, liquid MS, second independent experiment (Table 3)
structure (smiles),measurement,setting,value
"[Ce+3].[Cl-].[Cl-].[Cl-] [CeCl3, cerium (III) chloride]",increase in the number of calli regenerated compared to the control medium,"N. tabacum [1]; 0.1 μM CeCl3, Table 2 experiment",1.8 fold
same,Calli regenerated and transplanted: total,N. tabacum [1]; [3],35
same,Calli regenerated and transplanted: total,N. tabacum [1]; [4],48
same,increase in the number of calli regenerated compared to the control medium,"N. tabacum [1]; 0.1 μM CeCl3, second independent experiment (Table 3, FIG. 4)",2.2 fold
same,increase in the number of calli regenerated compared to the control medium,"N. tabacum [1]; 0.5 μM CeCl3, Table 2 experiment",2.9 fold
same,Calli regenerated and transplanted: total,N. tabacum [1]; [5],56
same,Calli regenerated and transplanted: total,N. tabacum [1]; [6],73
same,increase in the number of calli regenerated compared to the control medium,"N. tabacum [1]; 1.0 μM CeCl3, second independent experiment (Table 3, FIG. 4)",3.3 fold
same,difference in numbers of stable transformants versus control media,"N. tabacum [2]; 0.1 μM CeCl3, FIG. 4",2.0 fold
same,"Calli regenerated and transplanted, LUC expression test: LUC negative",N. tabacum [2]; [3],13
same,"Calli regenerated and transplanted, LUC expression test: LUC positive",N. tabacum [2]; [3],23
same,"Calli regenerated and transplanted, LUC expression test: LUC negative",N. tabacum [2]; [4],13
same,"Calli regenerated and transplanted, LUC expression test: LUC positive",N. tabacum [2]; [4],34
same,Integration frequency,N. tabacum [2]; [3],1.15 LUC positive plants/leaf trans
same,Integration frequency,N. tabacum [2]; [4],1.7 LUC positive plants/leaf trans
same,"Calli regenerated and transplanted, LUC expression test: LUC negative",N. tabacum [2]; [5],18
same,"Calli regenerated and transplanted, LUC expression test: LUC positive",N. tabacum [2]; [5],38
same,Integration frequency,N. tabacum [2]; [5],1.9 LUC positive plants/leaf trans
same,difference in numbers of stable transformants versus control media,"N. tabacum [2]; 1.0 μM CeCl3, FIG. 4",3.4 fold
same,"Calli regenerated and transplanted, LUC expression test: LUC negative",N. tabacum [2]; [6],18
same,"Calli regenerated and transplanted, LUC expression test: LUC positive",N. tabacum [2]; [6],57
same,Integration frequency,N. tabacum [2]; [6],2.85 LUC positive plants/leaf trans
